# Test results as given in patent EP0723577B1, “DETERGENT COMPOSITIONS CONTAINING SILVER ANTI-TARNISHING AGENTS” (UNILEVER N.V., priority 1993, dated 1995).
# What was measured:
# [1] = Tarnish-monitoring experiments in a dishwasher, monitors visually ranked 0 to 6 against the Example 1 reference scale
# Procedure: The wash program consisted of a pre-wash at 40°C, a mainwash at 55°C, two intermediate rinses, and a final rinse at 65°C.
# The mainwash pH with these compositions was typically 8.7. Silver-plated spoons (2 per run) were the monitors used in the test. The spoons were supplied by Oneida Silversmiths, USA. The monitors were washed in a commercially available hand dishwash liquid and rinsed with deionized water and acetone before use. In the dishwasher the monitors were kept apart from each other in the cutlery basket. At the end of a single-run machine program, the monitors were visually analyzed for the presence of colours and the loss of gloss.
# This ranking of spoons was used as a reference scale for all subsequent Examples.
# physchem = format: physicochemical
# Procedure: As used herein, the term "pKa" means a pH value at which 50% of the heterocyclic ring moieties of the compound (particularly the five-membered rings in the case of the purine class compounds) are in ionic form.
# The pH of this solution was adjusted to 3.0 with H2SO4. The solution was then titrated with 1N NaOH to pH 11.0. A plot of mls. NaOH vs. pH for each sample was prepared. The pKa of the compound is that point where the maximum change in pH as a function of mls. NaOH is observed.
# [2] = Tarnish-monitoring experiments in a dishwasher with varied bleaching agent and mainwash pH, visual evaluation against the Example 1 reference scale; settings: for reduction of tarnishing: pH 7.5 (peracetic acid 4.12%); for reduction in tarnishing: pH 10.5 (sodium hypochlorite 8.23%)
# Procedure: (§1) Tarnishing-monitoring experiments were conducted, using samples A, B, C, D, E, and F at a product dosage of 40 grams per run in a Bauknecht GSF 3162 dishwasher, with an intake of 5 litres water. The mainwash pH values for compositions A and B were adjusted to 7.5; the mainwash pH values for compositions C and D were adjusted to 8.5. Two experiments (each) were conducted, using compositions E and F; the mainwash pH values were adjusted to 9.0 and 10.5, respectively. Silver-plated spoons, knives, and forks (supplied by Oneida Silversmiths, USA), were used as monitors for all experiments. The monitors were washed in a commercially available hand dishwashing liquid and rinsed with deionized water and acetone before use. At the end of the dishwashing machine program, the monitors were visually evaluated for the presence of colours and/or loss of shine, according to the reference scale described in Example 1.
# as §1, with “Tarnish monitoring” for “Tarnishing-monitoring”, “conducted” for “conducted,”, “compositions” for “samples”, “D E” for “D, E,”, “available” for “available hand”
# Tarnish monitoring experiments were conducted using compositions A, B, C, D, E and F at a product dosage of 40 grams per run in a Bauknecht GSF 3162 dishwasher, with an intake of 5 litres water. The mainwash pH values for compositions A and B were adjusted to 7.5; the mainwash pH values for compositions C and D were adjusted to 8.5. Two experiments (each) were conducted using compositions E and F; the mainwash pH values were adjusted to 9.0 and 10.5. respectively. Silver-plated spoons, knives and forks (supplied by Oneida Silversmiths, USA), were used as monitors for all experiments. The monitors were washed in a commercially available dishwashing liquid and rinsed with deionized water and acetone before use. At the end of the dishwashing machine program, the monitors were visually evaluated for the presence of colours and/or loss of shine, according to the reference scale described in Example 1.
# [3] = Silver plates held in the compositions for 25 minutes, evaluated for tarnishing; settings: 4 wt.% epsilon-phthalimido peroxyhexanoic acid
# Procedure: (§2) A comparison of anti-tarnishing performance of purine class compounds within the scope of the invention and azole compounds outside the invention was conducted. The selected compounds were incorporated in an amount of 1 wt.% in a machine dishwashing composition containing 4 wt.% epsilon-phthalimido peroxyhexanoic acid as the bleaching agent. The pH values of the compositions were adjusted by the addition of a 50% solution of sodium hydroxide or concentrated sulfuric acid, as necessary.
# (§3) Copper plates and silver plates were held in each of the compositions for 25 minutes, removed, rinsed with deionized water and evaluated for tarnishing. […]
# as §2, with “1,3-N azole” for “purine class”
# as §3
# [4] = Example 11: 1,2,4-triazole 1.0%
smiles,measurement,setting,value
"c1nc[nH]n1 [1,2,4-triazole]",level at which optimum performance was achieved,[1]; Example 12,1 % by weight
same,"silver tarnishing, in words","[1]; Example 12, at amounts of 0.05 % by weight",effectively reduced silver tarnishing
same,pKa of compounds,physchem; deionized water,5.4
same,reduction of tarnishing,[2]; [4],1.5 units of tarnishing
same,reduction in tarnishing,[2]; [4],3.0 units
same,level of tarnishing relative to the case where no anti-tarnishing agent was present,"[2]; Example 11: 1,2,4-triazole 1.0%, peracetic acid, epsilon-phthalimidoperoxyhexanoic acid or sodium hypochlorite, pH 7.5 to 10.5",reduced the level of tarnishing
same,Effective Silver Anti-Tarnishing,"[3]; Example 13: 1 wt.% compound, pH of composition 8.8",Yes (A tarnish score of 3 or less was considered effective as a silver anti-tarnishing compound)
c1ncc2[nH]cnc2n1 [Purine],pKa,physchem,5.5
same,level of tarnishing relative to the samples which did not contain purine,"[2]; Example 4: purine 1.0%, peracetic acid pH 7.5, epsilon-phthalimidoperoxy hexanoic acid pH 8.5, sodium hypochlorite pH 9.0 and 10.5","greatest at pH values of 7.5, 8.5 and 9.0"
same,Effective Silver Anti-Tarnishing,"[3]; Example 5: 1 wt.% compound, pH of composition 8.6",Yes (A tarnish score of 3 or less was considered effective as a silver anti-tarnishing compound)
"O=c1[nH]c(=O)[nH]c(=O)[nH]1 [cyanuric acid, 1,3,5-triazine-2,4,6(1H,3H,5H)-trione]",level which gives optimum anti-tarnish performance,[1]; Example 9,about 1%
same,appearance of the monitors,"[1]; Example 9, cyanuric acid at a 2.5% level",slightly yellow appearance
same,reduction of tarnishing,[2]; Example 8: cyanuric acid 1.0%,1.5 units of tarnishing
same,reduction in tarnishing,[2]; Example 8: cyanuric acid 1.0%,3.0 units
same,level of tarnishing relative to the case where no anti-tarnish agent was present,"[2]; Example 8: cyanuric acid 1.0%, peracetic acid, epsilon-phthalimidoperoxyhexanoic acid or sodium hypochlorite, pH 7.5 to 10.5",reduced the level of tarnishing
